{
  "source": "PubChem BioAssay (NCI)",
  "test_in_all_cases": "NCI tumour cell line growth inhibition, 48 h",
  "key": {"KM20L2 colon": {"tested_on": "KM20L2 colon"}, "DLD-1 colon": {"tested_on": "DLD-1 colon"}, "LXFL 529 NSCLC": {"tested_on": "LXFL 529 NSCLC"}, "DMS 114 small cell lung": {"tested_on": "DMS 114 small cell lung"}, "MDA-N": {"tested_on": "MDA-N"}, "SN12K1 renal": {"tested_on": "SN12K1 renal"}, "HOP-18 NSCLC": {"tested_on": "HOP-18 NSCLC"}, "P388/ADR leukemia": {"tested_on": "P388/ADR leukemia"}, "P388 leukemia": {"tested_on": "P388 leukemia"}, "RXF-631 renal": {"tested_on": "RXF-631 renal"}},
  "note": "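Dose response: 5 concentrations. Exposure: 48 h. Format: 96-well plates. Endpoint: linear interpolation; highest concentration if not reached. GI50: concentration for 50% inhibition of growth. TGI: concentration producing complete growth inhibition.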",
  "data": [
    {"molecule": "NC(=O)/N=C/c1c(O)c2ccccc2oc1=O", "values": [
      {"measurement": "TGI", "setting": "KM20L2 colon", "value": "> 100", "unit": "µM"},
      {"measurement": "TGI", "setting": "DLD-1 colon", "value": "> 100", "unit": "µM"},
      {"measurement": "TGI", "setting": "LXFL 529 NSCLC", "value": "> 100", "unit": "µM"},
      {"measurement": "TGI", "setting": "DMS 114 small cell lung", "value": "> 100", "unit": "µM"}
    ]},
    {"molecule": "C/C(=N\\NC(N)=S)c1nc2ncccc2[nH]1", "values": [
      {"measurement": "TGI", "setting": "MDA-N", "value": "> 100", "unit": "µM"}
    ]},
    {"molecule": "COC(=O)C12Oc3ccc(-c4ccc5c(c4O)C(O)=C4C(=O)CC(C)C(O)C4(C(=O)OC)O5)c(O)c3C(O)=C1C(=O)CC(C)C2O", "note": "(stereo unspecified)", "values": [
      {"measurement": "TGI", "setting": "MDA-N", "value": "> 100", "unit": "µM"}
    ]},
    {"molecule": "COc1cc(O)c(Cc2ccccc2O)c(O)c1C(=O)CCc1ccccc1", "values": [
      {"measurement": "TGI", "setting": "KM20L2 colon", "value": 24.6, "unit": "µM"},
      {"measurement": "TGI", "setting": "DLD-1 colon", "value": 30.7, "unit": "µM"},
      {"measurement": "TGI", "setting": "SN12K1 renal", "value": 19.5, "unit": "µM"},
      {"measurement": "TGI", "setting": "HOP-18 NSCLC", "value": 4.53, "unit": "µM"},
      {"measurement": "TGI", "setting": "P388/ADR leukemia", "value": 14, "unit": "µM"},
      {"measurement": "TGI", "setting": "DMS 114 small cell lung", "value": 14.5, "unit": "µM"},
      {"measurement": "TGI", "setting": "P388 leukemia", "value": 13.5, "unit": "µM"}
    ]},
    {"molecule": "O=C1C(=C([O-])c2ccccc2)C(=O)c2ccccc21.O=C1C(=C([O-])c2ccccc2)C(=O)c2ccccc21.[Ni+2]", "values": [
      {"measurement": "GI50", "setting": "KM20L2 colon", "value": "> 100", "unit": "µM"},
      {"measurement": "TGI", "setting": "KM20L2 colon", "value": "> 100", "unit": "µM"},
      {"measurement": "GI50", "setting": "DLD-1 colon", "value": 40.2, "unit": "µM"},
      {"measurement": "TGI", "setting": "DLD-1 colon", "value": "> 100", "unit": "µM"},
      {"measurement": "GI50", "setting": "HOP-18 NSCLC", "value": 27.9, "unit": "µM"},
      {"measurement": "TGI", "setting": "HOP-18 NSCLC", "value": "> 100", "unit": "µM"}
    ]},
    {"molecule": "CC1OC(O[C@@H]2C=C3CC[C@@H]4[C@H](CC[C@]5(C)[C@@H](c6ccc(=O)oc6)CC[C@]45O)[C@@]3(C)CC2)C(O)C(OC2OC(CO)C(O)C(O)C2O)C1O", "note": "(stereo partly specified)", "values": [
      {"measurement": "TGI", "setting": "KM20L2 colon", "value": 0.0545, "unit": "µM"},
      {"measurement": "TGI", "setting": "DLD-1 colon", "value": 0.0253, "unit": "µM"},
      {"measurement": "TGI", "setting": "SN12K1 renal", "value": 0.025, "unit": "µM"},
      {"measurement": "TGI", "setting": "P388/ADR leukemia", "value": 142, "unit": "µM"},
      {"measurement": "TGI", "setting": "P388 leukemia", "value": 115, "unit": "µM"}
    ]},
    {"molecule": "CC(=O)OCC1OC(N=[N+]=[N-])C(OC(C)=O)C(OC(C)=O)C1OC1OC(COC(C)=O)C(OC(C)=O)C(OC(C)=O)C1OC(C)=O", "note": "(stereo unspecified)", "values": [
      {"measurement": "TGI", "setting": "KM20L2 colon", "value": "> 100", "unit": "µM"},
      {"measurement": "TGI", "setting": "LXFL 529 NSCLC", "value": "> 100", "unit": "µM"},
      {"measurement": "TGI", "setting": "RXF-631 renal", "value": "> 100", "unit": "µM"},
      {"measurement": "TGI", "setting": "DMS 114 small cell lung", "value": "> 100", "unit": "µM"}
    ]},
    {"molecule": "O=c1[nH]c(=O)n(C2CC(O)C(CO)O2)cc1Br", "note": "(stereo unspecified)", "values": [
      {"measurement": "TGI", "setting": "MDA-N", "value": "> 100", "unit": "µM"}
    ]},
    {"molecule": "Cc1cc(O)c2c(c1)C(C1c3cccc(O)c3C(=O)c3c(O)cc(C)cc31)c1cccc(O)c1C2=O", "note": "(stereo unspecified)", "values": [
      {"measurement": "TGI", "setting": "MDA-N", "value": 20.8, "unit": "µM"}
    ]},
    {"molecule": "C=C1CCOC2(C(O)C(C)(O)CO)NC(=O)C1(O)NC2=O", "note": "(stereo unspecified)", "values": [
      {"measurement": "TGI", "setting": "MDA-N", "value": "> 100", "unit": "µM"}
    ]}
  ]
}
